ChEMBL document CHEMBL2074176, “Multidrug resistance protein 1 (MRP1, ABCC1) mediates resistance to mitoxantrone via glutathione-dependent drug efflux” (Mol Pharmacol, 2006)

Legend:
Format in all cases: functional, cell-based
[1] = biological target: T1, Multidrug resistance-associated protein 1 (Homo sapiens, UniProt P33527); experiment: TP_TRANSPORTER: transport in etoposide-selected MCF7 cells
[2] = biological target: T1, Multidrug resistance-associated protein 1; experiment: TP_TRANSPORTER: ATP- and GSH-dependent transport in MCF7/MRP1-10 cells
[3] = biological target: T1, Multidrug resistance-associated protein 1; experiment: TP_TRANSPORTER: cell accumulation in MCF7/MRP1-M6 cells
[4] = biological target: T1, Multidrug resistance-associated protein 1; experiment: TP_TRANSPORTER: cell accumulation in MCF7/MRP1-M24 cells
[5] = biological target: T1, Multidrug resistance-associated protein 1; experiment: TP_TRANSPORTER: cell accumulation in MCF7/MRP1-10 cells

T1 sequence (P33527 whole entry): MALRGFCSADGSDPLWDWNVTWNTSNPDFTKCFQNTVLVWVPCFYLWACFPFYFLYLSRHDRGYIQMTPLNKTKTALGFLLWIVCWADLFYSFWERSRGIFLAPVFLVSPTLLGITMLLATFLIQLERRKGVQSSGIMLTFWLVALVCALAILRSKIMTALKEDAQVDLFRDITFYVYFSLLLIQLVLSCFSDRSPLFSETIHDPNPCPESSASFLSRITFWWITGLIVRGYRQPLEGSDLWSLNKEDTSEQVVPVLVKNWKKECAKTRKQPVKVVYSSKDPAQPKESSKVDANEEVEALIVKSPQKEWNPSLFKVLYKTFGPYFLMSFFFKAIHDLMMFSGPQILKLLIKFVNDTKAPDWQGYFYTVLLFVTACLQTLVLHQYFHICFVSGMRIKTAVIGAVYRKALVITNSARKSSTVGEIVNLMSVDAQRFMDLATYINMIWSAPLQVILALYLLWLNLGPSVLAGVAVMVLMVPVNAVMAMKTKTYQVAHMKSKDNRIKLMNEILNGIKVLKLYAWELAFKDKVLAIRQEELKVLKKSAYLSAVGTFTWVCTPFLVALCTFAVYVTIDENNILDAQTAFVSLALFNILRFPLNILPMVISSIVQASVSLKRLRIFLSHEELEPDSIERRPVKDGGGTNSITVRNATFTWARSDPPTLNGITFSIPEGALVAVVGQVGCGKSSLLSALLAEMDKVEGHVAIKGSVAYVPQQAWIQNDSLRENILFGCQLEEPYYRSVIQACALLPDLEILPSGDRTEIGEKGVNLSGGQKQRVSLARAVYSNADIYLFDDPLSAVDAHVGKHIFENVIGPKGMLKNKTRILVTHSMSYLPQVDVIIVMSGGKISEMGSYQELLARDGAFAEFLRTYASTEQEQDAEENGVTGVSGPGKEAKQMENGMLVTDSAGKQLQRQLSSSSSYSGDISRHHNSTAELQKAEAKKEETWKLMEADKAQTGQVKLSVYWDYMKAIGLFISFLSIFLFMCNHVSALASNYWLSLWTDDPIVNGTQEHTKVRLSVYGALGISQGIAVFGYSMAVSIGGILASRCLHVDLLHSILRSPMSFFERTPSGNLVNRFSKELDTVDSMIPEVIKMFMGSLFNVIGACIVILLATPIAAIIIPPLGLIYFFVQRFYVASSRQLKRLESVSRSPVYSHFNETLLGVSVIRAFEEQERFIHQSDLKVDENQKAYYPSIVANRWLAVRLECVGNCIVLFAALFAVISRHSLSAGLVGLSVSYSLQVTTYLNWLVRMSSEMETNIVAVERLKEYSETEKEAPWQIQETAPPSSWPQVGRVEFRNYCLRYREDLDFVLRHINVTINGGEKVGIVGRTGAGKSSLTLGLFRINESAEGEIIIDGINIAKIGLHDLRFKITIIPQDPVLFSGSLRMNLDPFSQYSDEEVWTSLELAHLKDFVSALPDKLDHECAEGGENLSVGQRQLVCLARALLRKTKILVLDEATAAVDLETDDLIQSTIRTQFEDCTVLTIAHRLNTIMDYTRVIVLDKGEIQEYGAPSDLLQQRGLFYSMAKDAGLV

For O=C1c2c(O)ccc(O)c2C(=O)c2c(NCCNCCO)ccc(NCCNCCO)c21 [MITOXANTRONE], the Activity [1] was “substrate [+]”, the Activity [2] was “substrate [+]” and the IC50 [3] was 1.5 nM. For the same molecule, the IC50 [4] was 1.5 nM and the IC50 [5] was 1.9 nM.
